Data taken from patent US8822517B2, “Arylosulfonamides for the treatment of CNS diseases” (Adamed SP. Z O.O., priority 2010, dated 2014).

How the values were obtained:
[1] = biological target: dopaminergic D3 receptor (Homo sapiens, UniProt P35462); test: Binding assay D3 (h), [3H]methyl-spiperone, CHO cells; set-up: expressed in transfected cells; host or cells: CHO cells; settings: read-out: D3 [%]
Description: (§1) The specific ligand binding to the receptors is defined as the difference between the total binding and the nonspecific binding determined in the presence of an excess of so unlabelled ligand.
(§2) The specific Ligand binding to the receptor is defined as the difference between total and non-specific binding determined in the presence of an excess of unlabelled ligand. The compounds were tested at a concentration of 1×10^−6 M, and scintillation counting was the method of detection of ligand binding.

[2] = biological target: serotoninergic 5-HT6 receptor (Homo sapiens, UniProt P50406); test: Binding assay 5-HT6 (h), [3H]LSD, CHO cells; set-up: expressed in transfected cells; host or cells: CHO cells; settings: read-out: 5-HT6
serotoninergic 5-HT6 receptor, sequence (P50406 whole entry): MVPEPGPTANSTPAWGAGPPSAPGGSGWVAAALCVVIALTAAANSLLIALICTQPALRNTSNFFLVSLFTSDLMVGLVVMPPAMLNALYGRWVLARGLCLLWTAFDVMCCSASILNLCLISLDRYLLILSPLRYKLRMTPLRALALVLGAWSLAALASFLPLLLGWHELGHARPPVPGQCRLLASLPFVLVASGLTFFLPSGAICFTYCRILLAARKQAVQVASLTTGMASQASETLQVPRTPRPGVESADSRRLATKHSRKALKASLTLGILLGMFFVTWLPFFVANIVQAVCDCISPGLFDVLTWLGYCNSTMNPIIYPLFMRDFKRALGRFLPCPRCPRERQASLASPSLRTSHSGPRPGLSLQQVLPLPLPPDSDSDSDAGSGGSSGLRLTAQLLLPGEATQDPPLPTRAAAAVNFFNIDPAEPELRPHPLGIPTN
Description: as §1, §2

[3] = biological target: dopaminergic D2 receptor (Homo sapiens, UniProt P14416); test: Binding assay D2S (h), [3H]methyl-spiperone, HEK-293 cells; set-up: expressed in transfected cells; host or cells: HEK-293 cells; settings: read-out: D2 [%]
dopaminergic D2 receptor, sequence (P14416 1-414 isoform P14416-2): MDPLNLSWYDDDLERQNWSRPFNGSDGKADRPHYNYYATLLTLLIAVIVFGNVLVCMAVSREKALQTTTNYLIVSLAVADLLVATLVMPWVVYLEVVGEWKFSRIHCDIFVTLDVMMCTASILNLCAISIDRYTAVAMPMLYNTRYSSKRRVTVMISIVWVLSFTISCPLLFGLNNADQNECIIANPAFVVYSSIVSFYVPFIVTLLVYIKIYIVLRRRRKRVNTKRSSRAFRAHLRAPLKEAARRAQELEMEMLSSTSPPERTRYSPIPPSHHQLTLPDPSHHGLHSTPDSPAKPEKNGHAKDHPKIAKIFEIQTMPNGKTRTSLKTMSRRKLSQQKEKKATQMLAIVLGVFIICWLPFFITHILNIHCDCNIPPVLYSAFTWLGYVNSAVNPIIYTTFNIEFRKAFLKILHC
Description: as §1, §2

[4] = biological target: serotoninergic 5-HT2A receptor (Homo sapiens, UniProt P28223); test: Binding assay 5-HT2A (h), [3H]ketanserin, HEK-293 cells; set-up: expressed in transfected cells; host or cells: HEK-293 cells; settings: read-out: 5-HT2A
serotoninergic 5-HT2A receptor, sequence (P28223 whole entry): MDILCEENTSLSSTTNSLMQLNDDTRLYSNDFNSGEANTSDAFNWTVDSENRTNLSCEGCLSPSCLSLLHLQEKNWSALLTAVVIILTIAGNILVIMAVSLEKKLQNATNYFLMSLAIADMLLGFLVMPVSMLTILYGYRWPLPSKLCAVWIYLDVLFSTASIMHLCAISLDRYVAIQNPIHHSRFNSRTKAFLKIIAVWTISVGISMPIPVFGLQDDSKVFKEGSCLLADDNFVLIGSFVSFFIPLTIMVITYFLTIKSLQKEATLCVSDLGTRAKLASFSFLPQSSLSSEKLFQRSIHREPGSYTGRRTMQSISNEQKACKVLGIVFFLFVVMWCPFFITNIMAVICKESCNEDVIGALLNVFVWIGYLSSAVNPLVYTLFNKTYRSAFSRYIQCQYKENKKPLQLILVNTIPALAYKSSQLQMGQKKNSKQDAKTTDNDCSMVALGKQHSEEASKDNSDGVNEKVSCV
Description: as §1, §2

[5] = biological target: T1, serotonine transporter (SERT) receptor (Homo sapiens, UniProt P31645); test: Binding assay SERT (h), [3H]imipramine, CHO cells; settings: read-out: SERT [%]
T1 construct: expressed in transfected cells; host or cells: CHO cells
T1 sequence (P31645 whole entry): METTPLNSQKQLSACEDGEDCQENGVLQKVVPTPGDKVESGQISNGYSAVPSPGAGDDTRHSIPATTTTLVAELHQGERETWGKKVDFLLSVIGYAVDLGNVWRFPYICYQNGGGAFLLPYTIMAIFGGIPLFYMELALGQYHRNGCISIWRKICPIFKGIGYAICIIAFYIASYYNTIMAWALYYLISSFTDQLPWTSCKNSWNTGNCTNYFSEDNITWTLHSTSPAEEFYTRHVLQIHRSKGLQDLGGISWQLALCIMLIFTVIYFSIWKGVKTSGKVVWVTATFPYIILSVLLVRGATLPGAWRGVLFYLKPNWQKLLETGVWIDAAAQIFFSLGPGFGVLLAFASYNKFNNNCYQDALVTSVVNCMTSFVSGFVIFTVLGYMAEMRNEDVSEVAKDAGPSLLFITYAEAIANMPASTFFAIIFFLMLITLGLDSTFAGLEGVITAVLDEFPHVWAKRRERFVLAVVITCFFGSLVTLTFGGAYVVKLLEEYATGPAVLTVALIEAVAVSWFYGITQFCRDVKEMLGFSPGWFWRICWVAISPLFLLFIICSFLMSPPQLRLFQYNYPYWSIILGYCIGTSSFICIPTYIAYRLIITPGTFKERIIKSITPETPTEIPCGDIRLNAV
Description: as §1, §2

[6] = biological target: serotoninergic 5-HT7 receptor (Homo sapiens, UniProt P34969); test: Binding assay 5-HT7 (h), [3H]LSD, CHO cells; set-up: expressed in transfected cells; host or cells: CHO cells; settings: read-out: 5-HT7
serotoninergic 5-HT7 receptor, sequence (P34969 whole entry): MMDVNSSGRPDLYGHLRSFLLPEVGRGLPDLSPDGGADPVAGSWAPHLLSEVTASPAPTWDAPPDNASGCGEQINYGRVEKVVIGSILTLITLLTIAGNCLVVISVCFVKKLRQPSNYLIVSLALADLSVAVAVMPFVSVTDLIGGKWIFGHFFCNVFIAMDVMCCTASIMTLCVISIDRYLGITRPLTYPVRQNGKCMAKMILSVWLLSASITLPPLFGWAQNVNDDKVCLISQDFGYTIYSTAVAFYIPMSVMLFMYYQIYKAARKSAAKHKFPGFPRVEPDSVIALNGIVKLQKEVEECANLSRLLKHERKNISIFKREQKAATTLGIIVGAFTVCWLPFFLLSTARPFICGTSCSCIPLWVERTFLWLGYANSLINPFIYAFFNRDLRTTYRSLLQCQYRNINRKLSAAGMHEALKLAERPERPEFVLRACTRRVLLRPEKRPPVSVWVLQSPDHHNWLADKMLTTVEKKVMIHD
Description: as §1, §2

[7] = biological target: T2, serotoninergic 5-HT1A receptor (Homo sapiens, UniProt P08908); test: Binding assay 5-HT1A (h), [3H]8-OH-DPAT, HEK-293 cells; set-up: expressed in transfected cells; host or cells: HEK-293 cells; settings: read-out: 5-HT1A
T2 sequence (P08908 1-422): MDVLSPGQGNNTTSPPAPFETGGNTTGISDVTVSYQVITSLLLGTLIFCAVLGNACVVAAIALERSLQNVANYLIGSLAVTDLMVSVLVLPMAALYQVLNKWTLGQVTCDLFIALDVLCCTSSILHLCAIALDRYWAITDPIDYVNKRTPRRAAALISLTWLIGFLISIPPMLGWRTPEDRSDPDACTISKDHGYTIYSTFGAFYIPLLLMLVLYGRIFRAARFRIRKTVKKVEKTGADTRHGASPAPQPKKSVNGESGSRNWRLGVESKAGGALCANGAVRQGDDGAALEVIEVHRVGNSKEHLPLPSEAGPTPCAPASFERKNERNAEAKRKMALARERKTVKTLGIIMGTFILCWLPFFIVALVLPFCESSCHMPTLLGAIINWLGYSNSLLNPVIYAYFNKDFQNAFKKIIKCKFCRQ
Description: as §1, §2

[8] = tested on: adrenergic α1 receptor; test: Binding assay α1 (non-selective), [3H]prazosin, rat cerebral cortex; settings: percent inhibition of control specific binding; compounds tested at 1×10^−6 M
Description: as §1, §2

dopaminergic D3 receptor, sequence (P35462 whole entry): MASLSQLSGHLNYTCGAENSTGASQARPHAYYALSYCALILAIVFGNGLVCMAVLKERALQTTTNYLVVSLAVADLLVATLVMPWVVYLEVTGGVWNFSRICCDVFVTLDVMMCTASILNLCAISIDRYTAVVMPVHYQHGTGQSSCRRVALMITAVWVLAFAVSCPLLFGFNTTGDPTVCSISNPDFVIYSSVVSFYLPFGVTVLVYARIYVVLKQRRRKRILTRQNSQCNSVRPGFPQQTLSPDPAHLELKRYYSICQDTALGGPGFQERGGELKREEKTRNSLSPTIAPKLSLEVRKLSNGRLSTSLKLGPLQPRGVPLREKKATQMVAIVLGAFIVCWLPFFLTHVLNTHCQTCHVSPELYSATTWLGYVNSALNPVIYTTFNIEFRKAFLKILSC

Compound | inhibition at 1 µM [1] | inhibition at 1 µM [2] | inhibition at 1 µM [3] | inhibition at 1 µM [4] | inhibition at 1 µM [5] | inhibition at 1 µM [6] | inhibition at 1 µM [7] | α1 [%] [8]
O=S(=O)(NCCCN1CCC(c2noc3cc(F)ccc23)CC1)c1cccc(Cl)c1 [Compound 106, 3-Chloro-N-[3-[4-(6-fluoro-1,2-benzoxazol-3-yl)piperidin-1-yl]propyl]benzenesulphonamide] | 97% | 93% | 108% | 97% | 2% | 91% | 63% | 
O=S(=O)(NCCCN1CCC(c2noc3cc(F)ccc23)CC1)c1cccc(Br)c1 [Compound 110, 3-Bromo-N-[3-[4-(6-fluoro-1,2-benzoxazol-3-yl)piperidin-1-yl]propyl]benzenesulphonamide] | 97% | 96% | 109% | 99% | 8% | 91% | 55% | 
O=c1[nH]c2cccc(N3CCN(CCCCNS(=O)(=O)c4cccc(Cl)c4)CC3)c2[nH]1 [Compound 173, 3-Chloro-N-[4-[4-(2-oxo-1,3-dihydrobenzimidazol-4-yl)piperazin-1-yl]butyl]benzenesulphonamide] | 98% |  |  |  |  |  |  | 89%
O=c1[nH]c2cccc(N3CCN(CCCCNS(=O)(=O)c4cccc(F)c4)CC3)c2[nH]1 [Compound 175, 3-Fluoro-N-[4-[4-(2-oxo-1,3-dihydrobenzimidazol-4-yl)piperazin-1-yl]butyl]benzenesulphonamide] | 87% |  |  |  |  |  |  | 82%
O=S(=O)(NCCCN1CCN(c2nsc3ccccc23)CC1)c1ccc(Cl)cc1 [Compound 250, N-[3-[4-(1,2-Benzothiazol-3-yl)piperazin-1-yl]propyl]-4-chlorobenzenesulphonamide] | 85% | 73% | 97% | 92% | 23% | 88% | 98% | 
O=S(=O)(NCCCN1CCC(c2noc3cc(F)ccc23)CC1)c1ccc(Cl)cc1 [Compound 328, 4-Chloro-N-[3-[4-(6-fluoro-1,2-benzoxazol-3-yl)piperidin-1-yl]propyl]benzenesulphonamide] | 99% | 87% | 108% | 90% | 7% | 92% | 58% | 
O=S(=O)(NCCCN1CCC(c2noc3cc(F)ccc23)CC1)c1ccc(Br)cc1 [Compound 330, 4-Bromo-N-[3-[4-(6-fluoro-1,2-benzoxazol-3-yl)piperidin-1-yl]propyl]benzenesulphonamide] | 99% | 83% | 108% | 93% | -2% | 90% | 67% | 
O=S(=O)(NCCCN1CCC(c2noc3cc(F)ccc23)CC1)c1ccc(Cl)s1 [Compound 341, 5-Chloro-N-[3-[4-(6-fluoro-1,2-benzoxazol-3-yl)piperidin-1-yl]propyl]thiophene-2-sulphonamide] | 98% | 93% | 98% | 102% | 8% | 78% | 74% | 
Cc1c(S(=O)(=O)NCCCN2CCC(c3noc4cc(F)ccc34)CC2)sc2ccc(Cl)cc12 [Compound 348, 5-Chloro-N-[3-[4-(6-fluoro-1,2-benzoxazol-3-yl)piperidin-1-yl]propyl]-3-methylbenzothiophene-2-sulphonamide] | 102% | 96% | 104% | 107% | 6% | 87% | 36% | 
Cc1[nH]c2ccc(Cl)cc2c1C1=CCN(CCCCNS(=O)(=O)c2ccc(F)cc2)CC1 [Compound 368, N-[4-[4-(5-Chloro-2-methyl-1H-indol-3-yl)-3,6-dihydro-2H-pyridin-1-yl]butyl]-4-fluorobenzenesulphonamide] | 94% | 96% | 41% | 64% | 14% | 42% | -7% | 
O=S(=O)(NCCCCN1CCN(c2cccc3c2OCCO3)CC1)c1ccc2cc(Cl)ccc2c1 [Compound 387, 6-Chloro-N-[4-[4-(2,3-dihydro-1,4-benzodioxin-5-yl)piperazin-1-yl]butyl]naphthalene-2-sulphonamide] | 93% | 26% |  | 90% | -14% | 96% | 100% | 86%
O=S(=O)(NCCCCN1CCN(c2cccc3c2OCCO3)CC1)c1cccs1 [Compound 397, N-[4-[4-(2,3-Dihydro-1,4-benzodioxin-8-yl)piperazin-1-yl]butyl]thiophene-2-sulphonamide] |  |  |  | 13% |  |  | 95% | 92%
O=S(=O)(NCCCN1CCN(c2cccc3c2OCCO3)CC1)c1ccc(F)c(F)c1 [Compound 410, N-[3-[4-(2,3-Dihydro-1,4-benzodioxin-5-yl)piperazin-1-yl]propyl]-3,4-difluorobenzenesulphonamide] |  |  |  | 42% |  |  | 96% | 84%
O=S(=O)(NCCCN1CCN(c2cccc3c2OCCO3)CC1)c1cccc(Br)c1 [Compound 413, 3-Bromo-N-[3-[4-(2,3-dihydro-1,4-benzodioxin-5-yl)piperazin-1-yl]propyl]benzenesulphonamide] |  |  |  | 40% |  |  | 88% | 90%
O=c1[nH]c2cccc(N3CCN(CCCCNS(=O)(=O)c4ccc(F)cc4)CC3)c2[nH]1 [Compound 420, 4-Fluoro-N-[4-[4-(2-oxo-1,3-dihydrobenzimidazol-4-yl)piperazin-1-yl]butyl]benzenesulphonamide] | 97% |  |  |  |  |  |  | 82%
O=c1[nH]c2cccc(N3CCN(CCCCNS(=O)(=O)c4ccc(Cl)cc4)CC3)c2[nH]1 [Compound 421, 4-Chloro-N-[4-[4-(2-oxo-1,3-dihydrobenzimidazol-4-yl)piperazin-1-yl]butyl]benzenesulphonamide] | 94% |  |  |  |  |  |  | 88%
Cc1cccc(S(=O)(=O)NCCCCN2CCN(c3cccc4[nH]c(=O)[nH]c34)CC2)c1 [Compound 422, 3-Methyl-N-[4-[4-(2-oxo-1,3-dihydrobenzimidazol-4-yl)piperazin-1-yl]butyl]benzenesulphonamide] | 98% |  |  |  |  |  |  | 86%
O=S(=O)(NCCCCN1CC=C(c2c[nH]c3ccc(F)cc23)CC1)c1cccc(O)c1 [Compound 434, N-[4-[4-(5-Fluoro-1H-indol-3-yl)-3,6-dihydro-2H-pyridin-1-yl]butyl]-3-hydroxybenzenesulphonamide] | 98% |  |  |  |  |  |  | 
O=S(=O)(NCCCN1CC=C(c2c[nH]c3ccc(F)cc23)CC1)c1cccc(F)c1 [Compound 436, 3-Fluoro-N-[3-[4-(5-fluoro-1H-indol-3-yl)-3,6-dihydro-2H-pyridin-1-yl]propyl]benzenesulphonamide] | 96% |  |  | 56% |  |  | 85% | 
Cc1[nH]c2ccc(Cl)cc2c1C1=CCN(CCCNS(=O)(=O)c2ccc(Cl)cc2)CC1 [Compound 444, 4-Chloro-N-[3-[4-(5-chloro-2-methyl-1H-indol-3-yl)-3,6-dihydro-2H-pyridin-1-yl]propyl]-benzenesulphonamide] | 74% | 87% |  | 65% | 44% | 59% | 51% | 26%
